The nature of data set [1]: In vitro metabolic stability, rat liver microsomes. Conditions: CLint expressed as mL/min/g liver. The data set is classed as in vitro ADME. The protocol:
(§1) The objective of this study was to determine metabolic stability of test items in rat and human liver microsomes. Verapamil and dextromethorphan were used as positive controls for microsomal incubation.
(§2) Incubation medium was prepared by combining 11.2 mL of potassium phosphate monobasic and 38.8 mL of potassium phosphate dibasic, diluted to 1 L with water. Cryopreserved microsomes were thawed and kept on ice until use. Microsomes were then diluted in incubation to a protein concentration of 0.56 mg/mL. […]
(§3) NADPH regenerating system solution was prepared by dissolving 1.7 mg of NADP, 7.8 mg of G6P and 6 units of G6P-Dehydrogenase in 1 mL of 2% sodium bicarbonate solution (prepared by dissolving 20 g of NaHCO3 in 1 L of water).
(§4) Test compounds were separately dissolved in DMF to obtain 10 mM stock solutions that were further diluted in water/acetonitrile 50/50 (v/v) to obtain the corresponding 50 μM working solutions. Verapamil and dextromethorphan were dissolved in DMF in order to obtain a 10 mM verapamil solution and 10 mM dextromethorphan solution. These solutions were then diluted in the incubation medium in order to obtain a 50 μM verapamil working solution and a 50 μM dextromethorphan working solution.
(§5) 800 μL-aliquots of NADPH regenerating system were pre-warmed at 37° C. for 5 minutes. 5 μL of 50 µM test compounds, verapamil or dextromethorphan were added to 445 μL of the 0.56 mg/mL microsomes solution and the incubation mixture was pre-warmed in a 96 deep well 2 mL plate (incubation plate) at 37° C. for 5 minutes. The incubation reactions were initiated by adding 50 μL of pre-warmed NADPH regenerating system to the incubation mixtures. 50 μL aliquots were taken from incubation mixtures at: 0, 3, 6, 9, 15, and 30 minutes and the reactions were stopped by adding 100 μL of aceronitrile with the corresponding internal standard. Samples were then diluted with 120 μL of water (final organic solvent percentage at 37%) and centrifuged at 3000 rpm for 10 minutes, prior the LC-MS/MS analysis.
(§6) Metabolic stability was calculated from the peak area ratio of the remaining test compound with internal standard versus time. The intrinsic clearance (CLint) was determined from the first order elimination constant k (min^−1) (obtained from GraphPad by plotting the natural logarithm of the peak area ratio of the remaining test item with internal standard versus time), using the actual volume of the incubation V (mL), the amount of hepatocytes in the incubation M (million cells) and the hepatocellularity number per a liver Hn (120 for human).
A general note: Liver microsomes are a subcellular fraction often used to study metabolism.

The target in a further data set is T1, Kv3.1 (Homo sapiens, UniProt P48547).
T1 sequence (P48547 1-511): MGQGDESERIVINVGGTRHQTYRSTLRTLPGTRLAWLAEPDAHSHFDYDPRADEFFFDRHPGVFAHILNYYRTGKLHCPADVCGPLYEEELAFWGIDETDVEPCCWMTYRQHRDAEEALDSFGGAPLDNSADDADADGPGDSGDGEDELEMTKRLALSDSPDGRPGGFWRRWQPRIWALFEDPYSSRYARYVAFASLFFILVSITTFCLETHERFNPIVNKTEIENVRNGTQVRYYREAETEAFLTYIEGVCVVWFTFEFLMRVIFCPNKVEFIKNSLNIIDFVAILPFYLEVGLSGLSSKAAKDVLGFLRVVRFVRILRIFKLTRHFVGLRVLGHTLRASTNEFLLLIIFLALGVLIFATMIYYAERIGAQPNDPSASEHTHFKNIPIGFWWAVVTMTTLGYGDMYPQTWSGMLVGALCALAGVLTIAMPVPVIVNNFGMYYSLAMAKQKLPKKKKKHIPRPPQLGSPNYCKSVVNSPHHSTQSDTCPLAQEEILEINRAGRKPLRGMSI
Conditions: Table 5, RE12 and RE13; based on EC50 value as reported in WO2021214090; cited from earlier work.

Data set [2] can be described thus: In vitro metabolic stability, human liver microsomes. The data set is classed as in vitro ADME. The note with it: CLint expressed as mL/min/g liver. The protocol:
as §1, §2, §3, §4, §5, §6

The nature of data set [3]: Determination of blood and brain tissue binding (equilibrium dialysis). The data set is classed as in vitro ADME, Sprague Dawley rat. The note with it: Sprague Dawley, 5 h at 37° C.; for fraction unbound at 5 h, 5 micromolar: 1:2 (w/v) in artificial CSF, rat brain homogenate, read-out: % FU Brain; for fraction unbound at 5 h, 0.5 micromolar: whole blood diluted 1:1 (v/v) with isotonic phosphate buffer, rat whole blood, read-out: % FU Blood. The protocol:
Sprague Dawley rat whole blood, collected on the week of the experiment using K3-EDTA as an anti-coagulant, is diluted with isotonic phosphate buffer 1:1 (v/v). Sprague Dawley rat whole brain, stored frozen at −20° C., is thawed and homogenised in artificial cerebrospinal fluid (CSF) 1:2 (w/v).
An appropriate amount of test compound is dissolved in DMSO to give a 10 millimolar solution. Further dilutions, to obtain a 166.7 micromolar working solution are then prepared using 50% acetonitrile in MilliQ water. This working solution is used to spike the blood to obtain a final concentration of 0.5 micromolar in whole blood. Similarly, the working solution is used to spike brain samples to obtain a final concentration of 5 micromolar in whole brain. From these spiked blood and brain preparations, control samples (n=3), are immediately extracted and used to calculate the initial recovery of the test items.
150 microL of compound-free buffer (isotonic phosphate buffer for blood or artificial CSF buffer for brain) is dispensed in one half-well and 150 microL of spiked matrix (blood or brain) is loaded in the other half-well, with the two halves separated by a semi-permeable membrane. After an equilibration period of 5 h at 37° C., 50 microL of dialysed matrix (blood or brain) is added to 50 microL of corresponding compound-free buffer, and vice-versa for buffer, such that the volume of buffer to matrix (blood or brain) remains the same. Samples are then extracted by protein precipitation with 300 microL of acetonitrile containing rolipram (control for positive ionization mode) or diclofenac (control for negative ionization mode) as internal standards and centrifuged for 10 min at 3000 rpm. Supernatants are collected (100 microL), diluted with 27% AcN in MilliQ water (200 microL) and then injected into an HPLC-MS/MS or UPLC-MS/MS system to determine the concentration of test compound present.
Blood and brain tissue binding are then determined using the following formulas:
where Afu=apparent fraction unbound; Buffer=analyte/internal standard ratio determined in the buffer compartment; Blood=analyte/internal standard ratio determined in the blood compartment; Brain=analyte/internal standard ratio determined in the brain compartment.
where: fucr=Fraction unbound corrected; D=matrix dilution factor (D=2 for blood and D=3 for brain). then: […]
(In general: Equilibrium dialysis compares concentrations on both sides of a semipermeable membrane.)

Marks after values point to notes of the source that are not given here.

Compound `Cc1ccc(Oc2ccc(-n3c(=O)[nH]c4cncnc43)cn2)cc1OC(F)(F)F` [RE12, reference compound] came in with a Cli rat in data set [1] of 1.5 mL/min/g. Further, the “Kv3.1 pEC50” value on Kv3.1 is listed as 5.2*. In data set [2], this compound registered a Cli human of 1.7 mL/min/g. Further, in data set [3], the fraction unbound at 5 h, 5 micromolar worked out at 0.006 and the fraction unbound at 5 h, 0.5 micromolar was found to be 0.007.

With `Cc1ccc(Oc2ccc(-n3c(=O)[nH]c4cnccc43)cn2)cc1OC(F)(F)F` [RE13, reference compound], in data set [1], the Cli rat was found to be 1.3 mL/min/g. For the same compound, the “Kv3.1 pEC50” value on Kv3.1 is on record as 5.6**. Besides, the Cli human in data set [2] is 0.6 mL/min/g. Besides, in data set [3], the fraction unbound at 5 h, 5 micromolar was 0.005 and the fraction unbound at 5 h, 0.5 micromolar was found to be 0.013.

Values taken from patent US20240327406A1, “POTASSIUM CHANNEL MODULATORS” (Autifony Therapeutics Limited, priority 2021, published 2024).
